Experimental data: patent publication US9499550B2 (BRISTOL-MYERS SQUIBB COMPANY, priority 2012, dated 2016)
Like-named read-outs stand apart in the source and are kept apart here.

How the values were obtained:
[1] = tested on: HCV genotype 1a (H77 strain) replicon in HUH-7 cells; assay: HCV replicon luciferase reporter assay, genotype 1a; format: cell-based; details: Hepatitis C virus, Huh-7, 72 h, HCV genotype 1a replicon luciferase, 3 days incubation
How it was run: (§1)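 Replicon inhibition for both genotypes was measured as Renilla luciferase signal (EnduRen, 7.5 μM final, 2 h) after 3-day, 37° C exposure of replicon-bearing HUH-7 cells in 4% FCS DMEM, 0.5% DMSO. The 1b construct carries S1179I; the 1a H77 construct carries P1496L and S2204I. Twenty-point, 3-fold dilutions were fitted four-parametrically for EC50, and CC50 was taken from multiplexed Cell Titer-Blue.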

[2] = tested on: HCV genotype 1b (Con1) replicon in HUH-7 cells; assay: HCV replicon luciferase reporter assay, genotype 1b; format: cell-based; details: Hepatitis C virus, Huh-7, 72 h, HCV genotype 1b replicon luciferase, 3 days incubation
How it was run: as §1

[3] = GETYPE1A, read-out: LE_1a (EC50, range)
[4] = GETYPE1B, read-out: LE_1b (EC50, range)

Structure (SMILES)	EC50 ([1]; read-out: LE_1a (EC50, range)) [nM]	EC50 ([2]; read-out: LE_1b (EC50, range)) [nM]	EC50 [1, 3] [nM]	EC50 [2, 4] [nM]	EC50 ([1]; GETYPE1A, read-out: LE_1a (EC50)) [nM]	EC50 ([2]; GETYPE1B, read-out: LE_1b (EC50)) [nM]
CC[C@@H]1C[C@H](C)CC/C=C\[C@@H]2C[C@@]2(C(=O)NS(=O)(=O)C2(C)CC2)NC(=O)[C@@H]2C[C@@H](Oc3nccc4cc(OC)c(F)cc34)CN2C(=O)[C@H]1NC(=O)N1CCC(F)(F)CC1 [Compound 4344, (2R,6S,7R,9R,13aS,14aR,16aS,Z)-6-(4,4-difluoropiperidine-1-carboxamido)-7-ethyl-2-((7-fluoro-6-methoxyisoquinolin-1-yl)oxy)-9-methyl-N-((1-methylcyclopropyl)sulfonyl)-5,16-dioxo-1,2,3,5,6,7,8,9,10,11,13a,14,14a,15,16,16a-hexadecahydrocyclopropa[e]pyrrolo[1,2-a][1,4]diazacyclopentadecine-14a-carboxamide]	1.01 to 5	1.01 to 5	–	–	–	–
CC[C@@H]1C[C@H](C)CC/C=C\[C@@H]2C[C@@]2(C(=O)NS(=O)(=O)C2CC2)NC(=O)[C@@H]2C[C@@H](Oc3ncc(C(N)=O)c4cc(OC)ccc34)CN2C(=O)[C@H]1NC(=O)OC(C)(C)C(F)(F)F [Compound 4345]	–	–	5.01 to 35	35 to 620	–	–
CCOc1ccc2nc(C(F)(F)F)c(O[C@@H]3C[C@H]4C(=O)N[C@]5(C(=O)NS(=O)(=O)C6(C)CC6)C[C@H]5/C=C\CC[C@@H](C)C[C@@H](C)[C@H](NC(=O)OC(C)(C)C)C(=O)N4C3)nc2c1 [Compound 4346, tert-butyl ((2R,6S,7R,9R,13aS,14aR,16aS,Z)-2-((7-ethoxy-3-(trifluoromethyl)quinoxalin-2-yl)oxy)-7,9-dimethyl-14a-(((1-methylcyclopropyl)sulfonyl)carbamoyl)-5,16-dioxo-1,2,3,5,6,7,8,9,10,11,13a,14,14a,15,16,16a-hexadecahydrocyclopropa[e]pyrrolo[1,2-a][1,4]diazacyclopentadecin-6-yl)carbamate]	0.51 to 1	0.1 to 0.5	–	–	–	–
CCOc1ccc2nc(C(F)(F)F)c(O[C@@H]3C[C@H]4C(=O)N[C@]5(C(=O)NS(=O)(=O)C6(C)CC6)C[C@H]5/C=C\CC[C@H](C)C[C@@H](C)[C@H](NC(=O)OC(C)(C)C)C(=O)N4C3)nc2c1 [Compound 4347, tert-butyl ((2R,6S,7R,9S,13aS,14aR,16aS,Z)-2-((7-ethoxy-3-(trifluoromethyl)quinoxalin-2-yl)oxy)-7,9-dimethyl-14a-(((1-methylcyclopropyl)sulfonyl)carbamoyl)-5,16-dioxo-1,2,3,5,6,7,8,9,10,11,13a,14,14a,15,16,16a-hexadecahydrocyclopropa[e]pyrrolo[1,2-a][1,4]diazacyclopentadecin-6-yl)carbamate]	5.01 to 35	1.01 to 5	–	–	–	–
CCOc1ccc2nc(C(F)(F)F)c(O[C@@H]3C[C@H]4C(=O)N[C@]5(C(=O)NS(=O)(=O)C6(C)CC6)C[C@H]5/C=C\CC[C@@H](C)C[C@@H](C)[C@H](NC(=O)OC(C)(C)C(F)(F)F)C(=O)N4C3)nc2c1 [Compound 4348]	–	–	0.51 to 1	0.1 to 0.5	–	–
CCOc1ccc2nc(C(F)(F)F)c(O[C@@H]3C[C@H]4C(=O)N[C@]5(C(=O)NS(=O)(=O)C6(C)CC6)C[C@H]5/C=C\CC[C@H](C)C[C@@H](C)[C@H](NC(=O)OC(C)(C)C(F)(F)F)C(=O)N4C3)nc2c1 [Compound 4349]	–	–	5.01 to 35	1.01 to 5	–	–
CC[C@@H]1C[C@H](C)CC/C=C\[C@@H]2C[C@@]2(C(=O)NS(=O)(=O)C2(C)CC2)NC(=O)[C@@H]2C[C@@H](Oc3nc4cc(OC(C)C)ccc4nc3C(F)(F)F)CN2C(=O)[C@H]1NC(=O)OC(C)(C)C(F)(F)F [Compound 4350]	–	–	1.01 to 5	0.51 to 1	1.49	0.88
